Laboratory results as given in US9585876B2 (NuSirt Sciences, Inc., priority 2013, dated 2017).
Blank lines part the entries; values can stand above or below the compound they belong to.

Key:
[1] = tested on: LDL receptor knockout (LDLRKO) mice; test: Plasma total cholesterol, cholesterol esters and triglycerides in LDLRKO mice on western diet, 28 days (Example 7); assay type: in vivo
Experimental: The mice were provided free access to an atherogenic western diet (WD) containing 0.21% cholesterol (by weight) and 40% calories from fat and water for 4 weeks prior to treatment. […] The treatments were administered for 28 days continuously.
Blood samples of the mice in all groups were obtained from tails of the mice at day 28 after the administration. The serum/plasma levels of triglyceride, total cholesterol and cholesterol esters were measured.

C. elegans = test: Lifespan of C. elegans (Example 8); assay type: in vivo, Caenorhabditis elegans; conditions: leucine (0.5 mM) or nicotinic acid (10 nM), each alone
Experimental: Eggs were hatched on a starved plate overnight. […] To study lifespan, 50 young adult worms were placed on NGM agar plates seeded with E. coli strain OP-50 (=day 1 of study). All treatments were added with the indicated concentrations to the agar plates. […] The worms were maintained at 21° C. throughout the duration of the study. Worms were transferred to new plates daily to eliminate progeny. […] The study was continued until the last animal was dead. Data were analyzed via Kaplan-Meier survival curves using Prism 6 (GraphPad Software) and statistical significance was determined by the Log-rank (Mantel-Cox) test.

[2] = oral dosing of about 3,000 mg; cited from earlier work
AMPK = conditions: 3T3-L1 adipocytes; concentrations of nicotinic acid <100 nM alone
Experimental: 3T3-L1 preadipocytes (American Type Culture Collection) were plated at a density of 8000 cells/cm2 (10 cm2 dish) and grown in Dulbecco's modified eagle's medium (DMEM) containing 10% fetal bovine serum (FBS), and antibiotics (growth medium) at 37° C. in 5% CO2. […] Preadipocytes were maintained in this differentiation medium for 3 days and subsequently cultured in growth medium. Cultures were re-fed every 2-3 days to allow >90% cells to reach fully differentiation before conducting chemical treatment.
Western blotting was performed with antibodies against AMPK and Phospho-AMPKα (Thr172) obtained from Cell Signaling (Danvers, Mass.). […] Total 30 μg of protein from the cell lysate was resolved on 10% Tris/HCL polyacrylamide gels (Criterion precast gel, Bio-Rad Laboratories, Hercules, Calif.), transferred to PVDF membranes, incubated in blocking buffer (3% BSA in TBS), incubated with primary antibody (P-AMPK), washed and incubated with secondary horseradish peroxidase-conjugated antibody.

[3] = tested on: LDL receptor knockout (LDLRKO) mice; test: Lipid levels, atherosclerotic plaque and cutaneous vasodilation in LDLRKO mice on atherogenic diet, 60 days (Example 4); assay type: in vivo; conditions: for HDL level in the blood stream compared to negative control group (atherogenic diet only) / triglyceride, LDL and cholesterol levels in the blood stream compared to negative control group (atherogenic diet only): 60 days
Experimental: All chemicals are purchased from Sigma.
Cutaneous vasodilation is measured by laser-Doppler flowmeter.

[4] = tested on: Patients that are pre-diagnosed with hyperlipidemia; test: Lipid levels and cutaneous vasodilation in hyperlipidemia patients, 60 days (Example 5); assay type: in vivo, human; conditions: for HDL level compared to day 0 values / triglyceride, LDL and cholesterol levels compared to day 0 values: orally twice a day, 60 days
Experimental: Patients that are pre-diagnosed with hyperlipidemia are admitted for the randomized and double blind study. […] The treatments are administered orally twice a day, for 60 days continuously.
Blood samples of the patients in all groups are obtained from at day 0, 30 and 60 after the administration. The serum/plasma levels of triglyceride, cholesterol, LDL and HDL are measured. Cutaneous vasodilation is measured by laser-Doppler flowmeter and the discomfort level described by the patients.

[5] = tested on: Patients that experience acute chest pain and are pre-diagnosed with hyperlipidemia; test: Atherosclerotic plaque size by quantitative coronary angiography in patients, 3 years (Example 6); assay type: in vivo, human; conditions: orally twice a day, (a) 50 mg nicotinic acid alone, (b) 50 mg nicotinic acid + 1135 mg leucine, (c) 50 mg nicotinic acid + 1135 mg leucine + 50 mg resveratrol, (d) 1135 mg leucine + 50 mg resveratrol
Experimental: The treatments are administered orally twice a day, for 3 years continuously. The size of atherosclerotic plaque is measured at day 0, months 6, 12, 18, 24, 30 and 36 by quantitative coronary angiography.

Sirt1 = Sirt1 level by Western blotting in C2C12 myotubes (Example 1)
[6] = group (e) 10 g nicotinic acid/kg diet alone
[7] = group (e) 3000 mg nicotinic acid alone

Compound: CC(C)C[C@H](N)C(=O)O [leucine]
effect on cholesterol esters ([1]; leucine 24 g/kg diet alone): no independent effect
effect on total cholesterol ([1]; leucine 24 g/kg diet alone): no independent effect
effect on lifespan (C. elegans): no independent effect

Compound: NC(=O)c1ccc[n+]([C@@H]2O[C@H](CO)[C@@H](O)[C@H]2O)c1 [nicotinamide riboside]
circulating level of nicotinic acid or nicotinamide riboside in a subject [2]: about 10 μM

cutaneous vasodilation compared to all the other groups including control groups ([3]; 10 g of nicotinic acid/kg diet alone, laser-Doppler flowmeter): significant higher
cutaneous vasodilation compared to all the other groups including placebo ([4]; 3000 mg of nicotinic acid alone, laser-Doppler flowmeter and discomfort level): significant higher
Compound: O=C(O)c1cccnc1 [nicotinic acid]
effect of nicotinic acid alone on the variable studied (P-AMPK/AMPK), dose-response study (AMPK): no effect
HDL level in the blood stream compared to negative control group (atherogenic diet only) [3, 6]: significantly higher
triglyceride, LDL and cholesterol levels in the blood stream compared to negative control group (atherogenic diet only) [3, 6]: significantly lower
HDL level in the blood stream compared to negative control group (atherogenic diet only) ([3]; per kg diet: (a) 250 mg nicotinic acid alone, (b) 250 mg nicotinic acid + 24 g leucine, (c) 50 mg nicotinic acid + 24 g leucine + 12.5 mg resveratrol): similar, without statistically significant difference
triglyceride, LDL and cholesterol levels in the blood stream compared to negative control group (atherogenic diet only) ([3]; per kg diet: (a) 250 mg nicotinic acid alone, (b) 250 mg nicotinic acid + 24 g leucine, (c) 50 mg nicotinic acid + 24 g leucine + 12.5 mg resveratrol, (d) 24 g leucine + 12.5 mg resveratrol): similar, without statistically significant difference
atherosclerotic lesion size in the aorta ([3]; day 60, group (e) 10 g nicotinic acid/kg diet alone): significantly reduced
atherosclerotic lesion size in the aorta ([3]; day 60, per kg diet: (a) 250 mg nicotinic acid alone, (b) 250 mg nicotinic acid + 24 g leucine, (c) 50 mg nicotinic acid + 24 g leucine + 12.5 mg resveratrol, (d) 24 g leucine + 12.5 mg resveratrol): No significant reduction
HDL level compared to day 0 values ([4]; (a) 50 mg nicotinic acid alone, (b) 50 mg nicotinic acid + 1135 mg leucine, (c) 50 mg nicotinic acid + 1135 mg leucine + 50 mg resveratrol): similar, without statistically significant difference
triglyceride, LDL and cholesterol levels compared to day 0 values ([4]; (a) 50 mg nicotinic acid alone, (b) 50 mg nicotinic acid + 1135 mg leucine, (c) 50 mg nicotinic acid + 1135 mg leucine + 50 mg resveratrol, (d) 1135 mg leucine + 50 mg resveratrol): similar, without statistically significant difference
HDL level compared to day 0 values [4, 7]: significantly higher
triglyceride, LDL and cholesterol levels compared to day 0 values [4, 7]: significantly lower
atherosclerotic plaque (lesion) size compared to day 0 values [5]: similar, without statistically significant difference
decrease in cholesterol esters ([1]; nicotinic acid 1,000 mg/kg diet, p<0.002): 28%
decrease in total cholesterol ([1]; nicotinic acid 1,000 mg/kg diet, p<0.01): 20%
effect on lifespan (C. elegans): no independent effect
circulating level of nicotinic acid or nicotinamide riboside in a subject [2]: about 10 μM
Sirt1 levels (Sirt1; 24 hours, nicotinic acid 10 nM, leucine 0.5 mM, nicotinic acid alone): did not have a significant effect
effect of nicotinic acid alone on the variable studied (Sirt1), dose-response study (Sirt1; concentrations of nicotinic acid <100 nM alone): no effect
